# Key:
# [1] = test system: IL-17; experiment: IL-17A production in anti-CD3/CD28-stimulated mouse spleen cells (ELISA); type: cell-based; conditions: for production and release of IL-17 in supernatant: 72 h
# Description: Briefly, before the experiment, 48-well plates were coated with 150 μl/well hamster anti-mouse CD3 (Clone 145-2C11, NA/LE, BD PHM, USA) at a concentration of 10 μg/ml and incubated overnight at 4° C. The next day, a C57BL/6 mouse was euthanized by cervical dislocation, and its spleen was aseptically dissected using sterile techniques. The harvested spleen was placed in a small Petri dish containing 10 ml of ice-cold PBS/FBS, ground using 2 frosted microscope slides, and filtered through a piece of 40 μm nylon material to yield a single cell suspension. Thereafter, the spleen cell suspension was carefully dispensed onto mouse lymphocyte separation medium (TBD Science Inc, Tianjin, China) and the lymphocytes were collected after density gradient centrifugation. After washing and cell counting, cell density was adjusted to 1 million cells/mL with RPMI 1640 (Gibco) plus 10% FCS and 1 μg/mL anti-mouse CD28 (BD PHM). […] After stimulation for 72 hours with anti-CD3 and anti-CD28 monoclonal antibodies, culture supernatants were collected and IL-17A measured with an IL-17A mouse ELISA kit (Thermo Fisher Scientific Inc.) according to the manufacturer's instructions. Cell count and viability were also evaluated with 0.4% trypan blue (Thermo Fisher Scientific Inc.) staining.
# [2] = test system: immune cells from the peritoneal cavity; experiment: Endometriosis mouse model, immune cell proportions of the peritoneal cavity (flow cytometry); type: in vivo; conditions: 50 mg/kg/day, 5 times a week, 6 weeks
# Description: Experimental design. Balb/C female mice (10 weeks old) were habituated for 3 days to take a jelly containing (group EDT+2,4D) or not (groups No EDT and EDT+Vehicle) the compound. Surgical implantation of endometrial tissue from syngenic female in peritoneum, was performed at day 0 for groups EDT+Vehicle and EDT+2,4D. […] The vehicle or treatment was then given 5 times a week (50 mg/kg/day) during 6 weeks. Mice were then sacrificed and the peritoneal inflammation was assessed. All the details of the protocol are depicted in FIG. 27. Cytokine measurement in cell-free peritoneal lavage. After mice were euthanized, 5 mL of PBS was injected into the peritoneal cavity and the diluted peritoneal fluid containing the cells was then retrieved. The cells were pelleted by centrifugation at 500×g 4° C. and the supernatant (cell-free peritoneal fluid) was frozen at −80° C. for subsequent cytokine concentration measurement by ELISA. Cytokine concentration was assessed by ELISA kit in the peritoneal fluid (ThermoFisher, Mouse IL-1β, IL6 and TNFalpha Uncoated ELISA). […] The optical density was read with the Clariostar Plus Microplate Reader (BMG LABTECH), through the Clario software. Concentrations were calculated from a standard curve according to the manufacturer's protocol. Phenotypic study of immune cells from the peritoneal cavity assessed by flow cytometry. The pelleted peritoneal cells were resuspended in PBS-2% FBS and counted. One million cells were stained with the following fluorophore-conjugated antibodies purchased from BioLegend: CD45 BV510, CD11b APC-Cy7, CD11c PE, F4/80 BV711, CD80 PE Cy5, CD206 AF647, Ly-6C, PE-Cy7, CCR2 BV786 et CXCR4 BV421, CD45R/B220 PE Texas-Red, CD3E FITC, NK1.1 BV605 and CD69 PerCP-Cy5.5, Zombie-UV. Cells were incubated 20 min in the dark at 4° C., washed with PBS-2% FBS, and were fixed with paraformaldehyde 4% in 5 mL round-bottom polystyrene tubes (Falcon™ 352054). Compensation was adjusted with Ultracomp beads (ThermoFisher). […] All data were collected on LSR Fortessa flow cytometer (BD Bioscience, USA) and analyzed with FlowJo software. […]
# [3] = test system: cell surface markers CD80, Ly6C, CD206, CXCR4, CCR2; experiment: Endometriosis mouse model, cell surface marker expression of peritoneal immune cells (flow cytometry); type: in vivo; conditions: 50 mg/kg/day, 5 times a week, 6 weeks
# Description: Experimental design. Balb/C female mice (10 weeks old) were habituated for 3 days to take a jelly containing (group EDT+2,4D) or not (groups No EDT and EDT+Vehicle) the compound. Surgical implantation of endometrial tissue from syngenic female in peritoneum, was performed at day 0 for groups EDT+Vehicle and EDT+2,4D. […] The vehicle or treatment was then given 5 times a week (50 mg/kg/day) during 6 weeks. Mice were then sacrificed and the peritoneal inflammation was assessed. All the details of the protocol are depicted in FIG. 27. Cytokine measurement in cell-free peritoneal lavage. After mice were euthanized, 5 mL of PBS was injected into the peritoneal cavity and the diluted peritoneal fluid containing the cells was then retrieved. The cells were pelleted by centrifugation at 500×g 4° C. and the supernatant (cell-free peritoneal fluid) was frozen at −80° C. for subsequent cytokine concentration measurement by ELISA. Cytokine concentration was assessed by ELISA kit in the peritoneal fluid (ThermoFisher, Mouse IL-1β, IL6 and TNFalpha Uncoated ELISA). […] The optical density was read with the Clariostar Plus Microplate Reader (BMG LABTECH), through the Clario software. Concentrations were calculated from a standard curve according to the manufacturer's protocol. Phenotypic study of immune cells from the peritoneal cavity assessed by flow cytometry. The pelleted peritoneal cells were resuspended in PBS-2% FBS and counted. One million cells were stained with the following fluorophore-conjugated antibodies purchased from BioLegend: CD45 BV510, CD11b APC-Cy7, CD11c PE, F4/80 BV711, CD80 PE Cy5, CD206 AF647, Ly-6C, PE-Cy7, CCR2 BV786 et CXCR4 BV421, CD45R/B220 PE Texas-Red, CD3E FITC, NK1.1 BV605 and CD69 PerCP-Cy5.5, Zombie-UV. Cells were incubated 20 min in the dark at 4° C., washed with PBS-2% FBS, and were fixed with paraformaldehyde 4% in 5 mL round-bottom polystyrene tubes (Falcon™ 352054). Compensation was adjusted with Ultracomp beads (ThermoFisher). All the antibodies were diluted at 1/200. All data were collected on LSR Fortessa flow cytometer (BD Bioscience, USA) and analyzed with FlowJo software. Statistical analysis. Outlier values farther than 2 standard deviation from the mean were not taken into account. Kruskal Wallis non-parametric test followed by Dunn's multiple comparisons test were performed for cytokines, One-Way Anova with Tukey's multiple comparisons test for flow cytometry data. *p<0.05, **p<0.01, ***p<0.001.
structure (smiles),measurement,setting,value
"COc1cc(O)c(OC)c(O)c1C(=O)/C=C/c1ccccc1 [2,4-D, 2′,4′-dihydroxy-3′,6′-dimethoxychalcone]",production and release of IL-17 in supernatant,[1]; 1 μg/ml,significantly suppressed
same,production and release of IL-17 in supernatant,[1]; 5 μg/ml,significantly suppressed
same,suppression of IL-17 on adding recombinant mouse IL-23,[1]; recombinant mouse IL-23 5 ng/ml,completely reversed
same,global T cell proportion,[2],did not affect
same,proportion of NK cells amongst the peritoneal cells,[2],significantly reduced
same,proportion of macrophages,[2],not changed
same,CCR2,[3],significantly reduced
same,CXCR4,[3],tended to decrease
same,Ly6C pro-inflammatory marker,[3],tended to decrease
same,anti-inflammatory CD206 marker,[3],did not reduce

# From patent publication US20240335395A1, “COMPOSITIONS AND METHODS FOR PREVENTING AND/OR TREATING DISEASE ASSOCIATED WITH IL-23 EXPRESSION” (ALLSPIM, priority 2021, published 2024)
